Key:
Assay type in all cases: in vivo
Alopecurus = assay: Pre-emergence test/greenhouse; settings: after three weeks
Procedure: (§1) Pre-emergence Test Solvent: 5 parts by weight of acetone Emulsifier: 1 part by weight of alkylaryl polyglycol ether To produce a suitable preparation of active compound, 1 part by weight of active compound is mixed with the stated amount of solvent, the stated amount of emulsifier is added and the concentrate is diluted with water to the desired concentration. Seeds of the test plants are sown in normal soil. After about 24 hours, the soil is sprayed with the preparation of the active compound in such a way as to apply the particular amounts of active compound desired per unit area The concentration of the spray liquor is chosen so that the particular amounts of active compound desired are applied in 1000 l of water/ha. After three weeks, the degree of damage to the plants is rated in % damage in comparison to the development of the untreated control. The figures denote: [table]

Amaranthus = assay: Pre-emergence test/greenhouse; settings: after three weeks
Procedure: as §1

Chenopodium = assay: Pre-emergence test/greenhouse; settings: after three weeks
Procedure: as §1

Lolium = assay: Pre-emergence test/greenhouse; settings: after three weeks
Procedure: as §1

Maize = assay: Pre-emergence test/greenhouse; settings: after three weeks
Procedure: as §1

Matricaria = assay: Pre-emergence test/greenhouse; settings: after three weeks
Procedure: as §1

Solanum [1] = assay: Pre-emergence test/greenhouse; settings: after three weeks
Procedure: as §1

Sorghum [2] = assay: Pre-emergence test/greenhouse; settings: after three weeks
Procedure: as §1

weeds [3] = assay: Pre-emergence test; settings: cf. Tables A-1 to A-5
Procedure: as §1

Ipomoea = assay: Post-emergence test/greenhouse; settings: rated after three weeks vs untreated control
Procedure: as §1, with “Post-emergence” for “Pre-emergence”, “Test plants which have a height” for “Seeds”, “5-15 cm” for “the test plants”, “are” for “are sown in normal soil. After about 24 hours, the soil is”, “area.” for “area”

Solanum [4] = assay: Post-emergence test/greenhouse; settings: post-emergence, rated after three weeks vs untreated control
Procedure: as §1, with “Post-emergence” for “Pre-emergence”, “Test plants which have a height” for “Seeds”, “5-15 cm” for “the test plants”, “are” for “are sown in normal soil. After about 24 hours, the soil is”, “area.” for “area”

Sorghum [5] = assay: Post-emergence test/greenhouse; settings: post-emergence, rated after three weeks vs untreated control
Procedure: as §1, with “Post-emergence” for “Pre-emergence”, “Test plants which have a height” for “Seeds”, “5-15 cm” for “the test plants”, “are” for “are sown in normal soil. After about 24 hours, the soil is”, “area.” for “area”

Stellaria = assay: Post-emergence test/greenhouse; settings: rated after three weeks vs untreated control
Procedure: as §1, with “Post-emergence” for “Pre-emergence”, “Test plants which have a height” for “Seeds”, “5-15 cm” for “the test plants”, “are” for “are sown in normal soil. After about 24 hours, the soil is”, “area.” for “area”

Wheat = assay: Post-emergence test/greenhouse; settings: rated after three weeks vs untreated control
Procedure: as §1, with “Post-emergence” for “Pre-emergence”, “Test plants which have a height” for “Seeds”, “5-15 cm” for “the test plants”, “are” for “are sown in normal soil. After about 24 hours, the soil is”, “area.” for “area”

weeds [6] = assay: Post-emergence test; settings: cf. Tables B-1 to B-4
Procedure: as §1, with “Post-emergence” for “Pre-emergence”, “Test plants which have a height” for “Seeds”, “5-15 cm” for “the test plants”, “are” for “are sown in normal soil. After about 24 hours, the soil is”, “area.” for “area”

Xanthium = assay: Post-emergence test/greenhouse; settings: post-emergence, rated after three weeks vs untreated control
Procedure: as §1, with “Post-emergence” for “Pre-emergence”, “Test plants which have a height” for “Seeds”, “5-15 cm” for “the test plants”, “are” for “are sown in normal soil. After about 24 hours, the soil is”, “area.” for “area”

## CCOc1nn(C(=O)NS(=O)(=O)c2c(Cl)cccc2SC)c(=O)n1C [Example 1, 5-ethoxy-4-methyl-2-(2-chloro-6-methylthio-phenylsulfonyl-aminocarbonyl)-2,4-dihydro-3H-1,2,4-triazol-3-one]
Alopecurus; 125 g ai./ha
  % damage, Alopecurus: 95%
Amaranthus; 125 g ai./ha
  % damage, Amaranthus: 90%
Chenopodium; 125 g ai./ha
  % damage, Chenopodium: 60%
Lolium; 125 g ai./ha
  % damage, Lolium: 70%
Maize; 125 g ai./ha
  % damage, Maize: 0%
Matricaria; 125 g ai./ha
  % damage, Matricaria: 70%
Solanum [1]; 125 g ai./ha
  % damage, Solanum: 100%
Sorghum [2]; 125 g ai./ha
  % damage, Sorghum: 90%
Weeds [3]
  activity against weeds: very strong activity

## CCSc1cccc(OC)c1S(=O)(=O)NC(=O)n1nc(CC)n(C)c1=O [Example 8]
Alopecurus; 125 g ai./ha
  % damage, Alopecurus: 100%
Amaranthus; 125 g ai./ha
  % damage, Amaranthus: 100%
Chenopodium; 125 g ai./ha
  % damage, Chenopodium: 100%
Lolium; 125 g ai./ha
  % damage, Lolium: 80%
Maize; 125 g ai./ha
  % damage, Maize: 0%
Solanum [1]; 125 g ai./ha
  % damage, Solanum: 60%
Weeds [3]
  activity against weeds: very strong activity

## CCSc1cccc(C(F)(F)F)c1S(=O)(=O)NC(=O)n1nc(OC)n(C)c1=O [Example 13]
Alopecurus; 125 g ai./ha
  % damage, Alopecurus: 90%
Amaranthus; 125 g ai./ha
  % damage, Amaranthus: 100%
Chenopodium; 125 g ai./ha
  % damage, Chenopodium: 100%
Lolium; 125 g ai./ha
  % damage, Lolium: 90%
Maize; 125 g ai./ha
  % damage, Maize: 0%
Matricaria; 125 g ai./ha
  % damage, Matricaria: 100%
Solanum [1]; 125 g ai./ha
  % damage, Solanum: 100%
Sorghum [2]; 125 g ai./ha
  % damage, Sorghum: 100%
Weeds [3]
  activity against weeds: very strong activity
Ipomoea; 60 g ai./ha
  Ipomoea, % damage: 90%
Solanum [4]; 60 g ai./ha
  Solanum, % damage: 95%
Sorghum [5]; 60 g ai./ha
  Sorghum, % damage: 80%
Stellaria; 60 g ai./ha
  Stellaria, % damage: 95%
Wheat; 60 g ai./ha
  Wheat, % damage: 0%
Weeds [6]
  activity against weeds: very strong activity

## CCSc1cccc(C(F)(F)F)c1S(=O)(=O)NC(=O)n1nc(SC)n(C)c1=O [Example 14]
Alopecurus; 125 g ai./ha
  % damage, Alopecurus: 100%
Amaranthus; 125 g ai./ha
  % damage, Amaranthus: 70%
Chenopodium; 125 g ai./ha
  % damage, Chenopodium: 100%
Maize; 125 g ai./ha
  % damage, Maize: 0%
Matricaria; 125 g ai./ha
  % damage, Matricaria: 100%
Solanum [1]; 125 g ai./ha
  % damage, Solanum: 100%
Sorghum [2]; 125 g ai./ha
  % damage, Sorghum: 90%
Weeds [3]
  activity against weeds: very strong activity

## COc1nn(C(=O)NS(=O)(=O)c2c(OC(F)(F)F)cccc2SC)c(=O)n1C [Example 32]
Alopecurus; 30 g ai./ha
  % damage, Alopecurus: 90%
Amaranthus; 30 g ai./ha
  % damage, Amaranthus: 100%
Chenopodium; 30 g ai./ha
  % damage, Chenopodium: 100%
Lolium; 30 g ai./ha
  % damage, Lolium: 100%
Maize; 30 g ai./ha
  % damage, Maize: 5%
Matricaria; 30 g ai./ha
  % damage, Matricaria: 90%
Solanum [1]; 30 g ai./ha
  % damage, Solanum: 95%
Sorghum [2]; 30 g ai./ha
  % damage, Sorghum: 90%
Weeds [3]
  activity against weeds: very strong activity

## CSc1cccc(OC(F)(F)F)c1S(=O)(=O)NC(=O)n1nc(SC)n(C)c1=O [Example 33]
Alopecurus; 125 g ai./ha
  % damage, Alopecurus: 100%
Amaranthus; 125 g ai./ha
  % damage, Amaranthus: 100%
Chenopodium; 125 g ai./ha
  % damage, Chenopodium: 100%
Lolium; 125 g ai./ha
  % damage, Lolium: 100%
Maize; 125 g ai./ha
  % damage, Maize: 10%
Matricaria; 125 g ai./ha
  % damage, Matricaria: 100%
Solanum [1]; 125 g ai./ha
  % damage, Solanum: 100%
Sorghum [2]; 125 g ai./ha
  % damage, Sorghum: 100%
Weeds [3]
  activity against weeds: very strong activity

## CCSc1cccc(OC(F)(F)F)c1S(=O)(=O)NC(=O)n1nc(CC)n(C)c1=O [Example 39]
Ipomoea; 60 g ai./ha
  Ipomoea, % damage: 80%
Solanum [4]; 60 g ai./ha
  Solanum, % damage: 95%
Sorghum [5]; 60 g ai./ha
  Sorghum, % damage: 80%
Stellaria; 60 g ai./ha
  Stellaria, % damage: 90%
Wheat; 60 g ai./ha
  Wheat, % damage: 20%
Xanthium; 60 g ai./ha
  Xanthium, % damage: 95%
Weeds [6]
  activity against weeds: very strong activity

## CCOc1nn(C(=O)NS(=O)(=O)c2c(SCC)cccc2SCC)c(=O)n1C [Example 43]
Ipomoea; 60 g ai./ha
  Ipomoea, % damage: 95%
Solanum [4]; 60 g ai./ha
  Solanum, % damage: 95%
Sorghum [5]; 60 g ai./ha
  Sorghum, % damage: 70%
Stellaria; 60 g ai./ha
  Stellaria, % damage: 90%
Wheat; 60 g ai./ha
  Wheat, % damage: 20%
Xanthium; 60 g ai./ha
  Xanthium, % damage: 100%
Weeds [6]
  activity against weeds: very strong activity

## CCSc1cccc(SCC)c1S(=O)(=O)NC(=O)n1nc(CC)n(C)c1=O [Example 44]
Ipomoea; 60 g ai./ha
  Ipomoea, % damage: 95%
Solanum [4]; 60 g ai./ha
  Solanum, % damage: 95%
Sorghum [5]; 60 g ai./ha
  Sorghum, % damage: 70%
Stellaria; 60 g ai./ha
  Stellaria, % damage: 80%
Wheat; 60 g ai./ha
  Wheat, % damage: 10%
Xanthium; 60 g ai./ha
  Xanthium, % damage: 100%
Weeds [6]
  activity against weeds: very strong activity

## CCSc1cccc(SCC)c1S(=O)(=O)NC(=O)n1nc(OC)n(C)c1=O [Example 46]
Ipomoea; 60 g ai./ha
  Ipomoea, % damage: 9S
Solanum [4]; 60 g ai./ha
  Solanum, % damage: 95%
Sorghum [5]; 60 g ai./ha
  Sorghum, % damage: 70%
Stellaria; 60 g ai./ha
  Stellaria, % damage: 95%
Xanthium; 60 g ai./ha
  Xanthium, % damage: 100%
Weeds [6]
  activity against weeds: very strong activity

## CCOc1nn(C(=O)NS(=O)(=O)c2c(C)cccc2SC)c(=O)n1C [Example 48]
Ipomoea; 60 g ai./ha
  Ipomoea, % damage: 90%
Solanum [4]; 60 g ai./ha
  Solanum, % damage: 90%
Sorghum [5]; 60 g ai./ha
  Sorghum, % damage: 100%
Stellaria; 60 g ai./ha
  Stellaria, % damage: 60%
Wheat; 60 g ai./ha
  Wheat, % damage: 5%
Xanthium; 60 g ai./ha
  Xanthium, % damage: 95%
Weeds [6]
  activity against weeds: very strong activity

## CCSc1cccc(C)c1S(=O)(=O)NC(=O)n1nc(OC)n(C)c1=O [Example 53]
Ipomoea; 125 g ai./ha
  Ipomoea, % damage: 95%
Solanum [4]; 125 g ai./ha
  Solanum, % damage: 59%
Sorghum [5]; 125 g ai./ha
  Sorghum, % damage: 95%
Stellaria; 125 g ai./ha
  Stellaria, % damage: 90%
Wheat; 125 g ai./ha
  Wheat, % damage: 20%
Xanthium; 125 g ai./ha
  Xanthium, % damage: 100%
Weeds [6]
  activity against weeds: very strong activity

## COc1cccc(SCCF)c1S(=O)(=O)NC(=O)n1nc(OC)n(C)c1=O [Example 57]
Alopecurus; 125 g ai./ha
  % damage, Alopecurus: 100%
Amaranthus; 125 g ai./ha
  % damage, Amaranthus: 100%
Chenopodium; 125 g ai./ha
  % damage, Chenopodium: 100%
Lolium; 125 g ai./ha
  % damage, Lolium: 100%
Sorghum [2]; 125 g ai./ha
  % damage, Sorghum: 100%
Weeds [3]
  activity against weeds: very strong activity

## CSc1cccc(C(F)(F)F)c1S(=O)(=O)NC(=O)n1nc(SC)n(C)c1=O [Example 62]
Alopecurus; 60 g ai./ha
  % damage, Alopecurus: 100%
Amaranthus; 60 g ai./ha
  % damage, Amaranthus: 100%
Chenopodium; 60 g ai./ha
  % damage, Chenopodium: 100%
Lolium; 60 g ai./ha
  % damage, Lolium: 100%
Maize; 60 g ai./ha
  % damage, Maize: 10%
Solanum [1]; 60 g ai./ha
  % damage, Solanum: 100%
Sorghum [2]; 60 g ai./ha
  % damage, Sorghum: 90%
Weeds [3]
  activity against weeds: very strong activity

## CCc1nn(C(=O)NS(=O)(=O)c2c(SC)cccc2C(F)(F)F)c(=O)n1C [Example 63]
Alopecurus; 60 g ai./ha
  % damage, Alopecurus: 100%
Amaranthus; 60 g ai./ha
  % damage, Amaranthus: 100%
Chenopodium; 60 g ai./ha
  % damage, Chenopodium: 100%
Lolium; 60 g ai./ha
  % damage, Lolium: 70%
Maize; 60 g ai./ha
  % damage, Maize: 0%
Solanum [1]; 60 g ai./ha
  % damage, Solanum: 100%
Sorghum [2]; 60 g ai./ha
  % damage, Sorghum: 100%
Weeds [3]
  activity against weeds: very strong activity

Reference: patent publication US6677277B1, “Substituted sulphonyl amino(thio)carbonyl compounds and their use as herbicides” (Bayer Aktiengesellschaft, priority 1996, dated 2004)
